Results published in PMC5829251, “NAD^+ analog reveals PARP-1 substrate-blocking mechanism and allosteric communication from catalytic center to DNA-binding domains” (Nature Communications, 2018).
Several values for one entry are separate records, joined by “and”; a condition that tells them apart may be missing. Equal values may be shown once. Entries after “also recorded” stand apart in the source; their conditions may differ.

What was measured:
[1] = biological target: T1, PARP-1 CAT ΔHD (Homo sapiens, UniProt P09874); experiment: ITC, PARP-1 CAT ΔHD; assay type: binding; settings: for n (stoichiometry): CAT ΔHD; for Kd: CAT ΔHD 50 μM, compound 525 μM titrated, 25°C
T1 construct: a pET28 construct coding for PARP-1 residues 661-1011; made in house; host or cells: E. coli
T1 sequence (P09874 with tags, fused parts or gaps): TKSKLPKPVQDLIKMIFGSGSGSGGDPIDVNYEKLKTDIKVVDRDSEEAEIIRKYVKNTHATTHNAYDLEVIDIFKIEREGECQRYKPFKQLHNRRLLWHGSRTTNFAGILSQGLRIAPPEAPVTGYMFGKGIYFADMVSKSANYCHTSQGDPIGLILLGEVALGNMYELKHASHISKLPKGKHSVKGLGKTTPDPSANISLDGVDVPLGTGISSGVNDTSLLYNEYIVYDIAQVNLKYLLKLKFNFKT
Description: (§1) ITC experiments were performed using a MicroCal iTC200 calorimeter (GE Healthcare). BAD or benzamide at 525 μM was titrated into PARP-1 protein (50 μM for CAT WT and CAT ΔHD, 40 μM for full-length PARP-1 WT and mutants) or PARP-1 protein with DNA (20–40 μM) at 25°C. Prior to the experiment, proteins and DNA were dialyzed in 25 mM Hepes pH 8.0, 150 mM NaCl, 1 mM EDTA, and 0.1 mM TCEP. BAD and benzamide were diluted in the dialysis buffer. PARP-1/DNA complexes were assembled and incubated at RT for 30 min prior to performing the experiment. Experiments were typically designed as follows: a first injection of 0.2 μL was followed by 16 injections of 2.5 μL with a spacing of 100 s between injections. Excess heat upon each injection was integrated using an automatically adjusted base line and derived values corrected by heat of dilution. Data analysis and curve fitting were conducted using Origin 7 software. The ITC experiment for each sample was performed either two (PARP-1 WT with benzamide, PARP-1 E763/D766/D770A with benzamide, PARP-1 D766/D770A with BAD) or three times (the remaining eight samples). Table 2 lists the average KD value and stoichiometry (n) for the replicates, and the reported errors are the calculated standard deviations (representing the range of values for experiments repeated two times). We anticipate that the sub-stoichiometric n values for CAT constructs results from either the active fraction being < 100%, or the protein concentration determination being not entirely accurate. The analysis of full-length PARP-1 yielded n values around the expected value of 1.

[2] = biological target: T2, full-length PARP-1 E763/D766/D770A (Homo sapiens, UniProt P09874, D766A/D770A/E763A); experiment: ITC, full-length PARP-1 E763/D766/D770A; assay type: binding; settings: for n (stoichiometry): FL E763/D766/D770A; for KD / Kd: FL E763/D766/D770A 40 μM, without DNA, compound 525 μM titrated, 25°C
T2 construct: Full-length PARP-1 WT (residues 1–1014) was cloned in pET28 vector and site-directed mutagenesis was performed; made in house; host or cells: E. coli
T2 sequence (P09874 whole entry E763A/D766A/D770A, the tested form may be a part): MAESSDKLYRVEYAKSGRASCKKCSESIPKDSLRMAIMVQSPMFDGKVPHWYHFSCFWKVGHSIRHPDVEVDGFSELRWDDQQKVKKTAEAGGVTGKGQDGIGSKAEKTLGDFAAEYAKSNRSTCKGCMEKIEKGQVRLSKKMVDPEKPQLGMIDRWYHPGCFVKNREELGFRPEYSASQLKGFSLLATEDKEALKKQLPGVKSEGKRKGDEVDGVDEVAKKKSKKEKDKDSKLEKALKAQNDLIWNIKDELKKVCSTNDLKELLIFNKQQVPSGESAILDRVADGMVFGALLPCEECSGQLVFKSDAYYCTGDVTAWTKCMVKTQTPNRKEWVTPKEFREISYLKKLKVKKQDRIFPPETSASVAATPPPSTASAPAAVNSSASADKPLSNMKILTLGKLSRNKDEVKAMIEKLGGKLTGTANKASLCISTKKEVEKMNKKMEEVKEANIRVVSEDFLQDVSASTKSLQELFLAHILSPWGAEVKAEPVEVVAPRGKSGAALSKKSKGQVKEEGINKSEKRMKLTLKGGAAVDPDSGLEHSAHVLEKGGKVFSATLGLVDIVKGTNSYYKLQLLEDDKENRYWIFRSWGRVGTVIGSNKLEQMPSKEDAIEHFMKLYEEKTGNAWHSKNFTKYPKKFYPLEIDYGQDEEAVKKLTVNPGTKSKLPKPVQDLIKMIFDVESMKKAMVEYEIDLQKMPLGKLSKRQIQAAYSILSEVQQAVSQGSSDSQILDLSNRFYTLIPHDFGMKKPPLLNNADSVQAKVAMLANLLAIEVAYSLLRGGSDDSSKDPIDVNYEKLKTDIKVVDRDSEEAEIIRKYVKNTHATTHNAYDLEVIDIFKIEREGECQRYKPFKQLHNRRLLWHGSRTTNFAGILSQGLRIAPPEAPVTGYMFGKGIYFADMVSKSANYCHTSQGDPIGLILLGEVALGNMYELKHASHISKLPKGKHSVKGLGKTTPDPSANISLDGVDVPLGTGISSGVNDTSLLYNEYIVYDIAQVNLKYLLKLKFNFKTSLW
Description: as §1

[3] = biological target: T3, PARP-1 CAT WT (Homo sapiens, UniProt P09874); experiment: Isothermal titration calorimetry (ITC), PARP-1 CAT WT; assay type: binding
T3 construct: The PARP-1 CAT WT (residues 661–1014) was cloned in pET28 vector; made in house; host or cells: E. coli
T3 sequence (P09874 661-1014): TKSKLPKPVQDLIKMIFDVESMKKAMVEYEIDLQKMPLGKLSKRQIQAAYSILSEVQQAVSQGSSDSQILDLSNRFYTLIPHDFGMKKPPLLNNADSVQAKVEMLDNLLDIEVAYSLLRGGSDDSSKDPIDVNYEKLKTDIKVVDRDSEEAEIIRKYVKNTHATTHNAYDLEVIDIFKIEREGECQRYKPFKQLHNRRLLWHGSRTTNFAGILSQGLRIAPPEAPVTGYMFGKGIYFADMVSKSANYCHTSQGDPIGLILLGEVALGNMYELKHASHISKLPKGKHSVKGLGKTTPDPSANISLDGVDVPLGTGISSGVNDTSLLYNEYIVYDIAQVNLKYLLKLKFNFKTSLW
Description: as §1

[4] = biological target: T4, Tankyrase 1 CAT (Homo sapiens, UniProt O95271); experiment: DSF, Tankyrase 1 CAT; assay type: binding
T4 construct: Tankyrase 1 CAT (residues 1093–1327) was cloned in pET24; made in house
T4 sequence (O95271 1093-1327): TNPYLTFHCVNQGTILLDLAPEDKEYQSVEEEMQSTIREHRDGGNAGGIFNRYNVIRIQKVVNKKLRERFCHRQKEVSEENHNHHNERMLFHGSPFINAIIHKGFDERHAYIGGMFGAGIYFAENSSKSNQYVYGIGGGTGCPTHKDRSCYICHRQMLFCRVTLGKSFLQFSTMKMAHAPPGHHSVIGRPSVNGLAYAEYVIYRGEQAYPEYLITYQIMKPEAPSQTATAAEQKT
Description: (§2) DSF experiments were performed as described, [13] using 5 µM protein, 2.5 µM DNA when indicated and various concentrations of compound (BAD, carba-NAD^+, benzamide, and ADP-ribose) as indicated in Fig. 1 and Fig. 3. Experiments were performed on a Roche LightCycler 480 RT-PCR. Reactions including DNA were performed with a 26- or 28-base pair (bp) unphosphorylated oligonucleotide for PARP-1, a 28-bp 5´-phosphorylated (5´P) oligonucleotide for PARP-2, and a 47-bp oligonucleotide including a central 5´P nick for PARP-3^13 in the following buffer: 25 mM Hepes pH 8.0, 150 mM NaCl, 1 mM EDTA, and 0.1 mM TCEP. Reactions with PARP-3 were conducted at lower ionic strength to allow binding to DNA as described (25 mM Hepes pH 8.0, 50 mM NaCl, 1 mM EDTA and 0.1 mM TCEP)[13]. ΔTM values were calculated by subtracting the TM determined for the protein in the absence of compound from the TM determined in the presence of compound. Experiments were performed in triplicate and a Boltzmann sigmoid was fit to the data to determine the TM values (KaleidaGraph).

[5] = biological target: T5, full-length PARP-1 D766/D770A (Homo sapiens, UniProt P09874, D766A/D770A); experiment: ITC, full-length PARP-1 D766/D770A; assay type: binding; settings: for n (stoichiometry): FL D766/D770A; for KD / Kd: FL D766/D770A 40 μM, without DNA, compound 525 μM titrated, 25°C
T5 construct: Full-length PARP-1 WT (residues 1–1014) was cloned in pET28 vector and site-directed mutagenesis was performed; made in house; host or cells: E. coli
T5 sequence (P09874 whole entry D766A/D770A, the tested form may be a part): as the sequence (P09874 whole entry E763A/D766A/D770A, the tested form may be a part) above, with A763E counted along it
Description: as §1

[6] = biological target: T6, PARP-1 D45A (Homo sapiens, UniProt P09874, D45A); experiment: DSF, full-length PARP-1 D45A with or without DNA; assay type: binding; settings: for TM: Figure 3b, BAD 1250 μM, in °C (unit assumed)
T6 construct: Full-length PARP-1 WT (residues 1–1014) was cloned in pET28 vector and site-directed mutagenesis was performed; made in house; host or cells: E. coli
T6 sequence (P09874 whole entry D45A, the tested form may be a part): as the sequence (P09874 whole entry E763A/D766A/D770A, the tested form may be a part) above, with D45A, A763E, A766D, A770D counted along it
Description: as §2

[7] = biological target: T7, full-length PARP-1 (Homo sapiens, UniProt P09874); experiment: Colorimetric assay of full-length PARP-1 DNA-dependent activity; assay type: biochemical; settings: for IC50: 20 nM PARP-1, 40 nM DNA (18-bp duplex), 50 μM NAD+ (99:1 NAD+:bio-NAD+)
T7 construct: Full-length PARP-1 WT (residues 1–1014) was cloned in pET28 vector; made in house; host or cells: E. coli
T7 sequence (P09874 whole entry, the tested form may be a part): as the sequence (P09874 whole entry E763A/D766A/D770A, the tested form may be a part) above, with A763E, A766D, A770D counted along it
Description: The colorimetric assay was performed as described, [28] using 20 nM of protein and 40 nM DNA (18-bp duplex). A mixture of NAD^+ and biotinylated NAD^+ (bio-NAD^+) was used at a 99:1 ratio and a final concentration of 50 µM. Reactions were allowed to proceed for 5 min before quenching. Three independent experiments were performed.

[8] = biological target: T8, PARP-1 (Homo sapiens, UniProt P09874); experiment: SDS-PAGE PARP-1 activity assay (DNA-dependent automodification); assay type: biochemical; settings: 1 μM DNA, 1 μM protein, 50 μM NAD+; concentration series
T8 construct: Full-length PARP-1 WT (residues 1–1014) was cloned in pET28 vector; made in house; host or cells: E. coli
T8 sequence (P09874 whole entry, the tested form may be a part): as the sequence (P09874 whole entry E763A/D766A/D770A, the tested form may be a part) above, with A763E, A766D, A770D counted along it
Description: The SDS-PAGE activity assay was performed as described[28] using 1 µM protein, 1 μM DNA (18 bp oligonucleotide), 50 µM NAD^+, and various concentrations of BAD and carba-NAD^+ as indicated. Reactions were incubated for 5 min before quenching with SDS-PAGE loading buffer.

[9] = biological target: T9, PARP-1 triple mutant E763/D766/D770A (Homo sapiens, UniProt P09874, D766A/D770A/E763A); experiment: DSF, full-length PARP-1 E763/D766/D770A; assay type: binding; settings: BAD 1250 μM
T9 construct: Full-length PARP-1 WT (residues 1–1014) was cloned in pET28 vector and site-directed mutagenesis was performed; made in house; host or cells: E. coli
T9 sequence (P09874 whole entry E763A/D766A/D770A, the tested form may be a part): as the sequence (P09874 whole entry E763A/D766A/D770A, the tested form may be a part) above
Description: as §2

[10] = CAT WT 50 μM, compound 525 μM titrated, 25°C

| Compound | n (stoichiometry) [1] | Kd [1] | n (stoichiometry) [2] | KD [2] | Kd [2] | n (stoichiometry) [5] | KD [5] | Kd [5] | IC50 [7] | also measured |
| --- | --- | --- | --- | --- | --- | --- | --- | --- | --- | --- |
| NC(=O)c1cccc(C2OC(COP(=O)(O)OP(=O)(O)OCC3OC(n4cnc5c(N)ncnc54)C(O)C3O)C(O)C2O)c1 (stereo not shown) [BAD, benzamide adenine dinucleotide] | 0.63 + /− 0.09 | 5.87 µM | 1.00 + /− 0.13 | showed evidence of binding | 0.38 µM | 0.96 + /− 0.10 | showed evidence of binding | 2.49 µM | 8.6 µM and 8.63 µM | calculated KD for BAD lower than observed for all other proteins ([2]; E763/D766/D770A versus all other proteins): about 10 fold; KD [3, 10]: no measureable heat exchange; also recorded: No binding; binding to BAD based on the DSF analysis ([4]; CAT of tankyrase 1 (no HD)): capable of binding; TM ([4]; Figure 3d, TNK CAT 5 μM, BAD 4 mM, TM without BAD 53.71, in °C (unit assumed)): 57.42; TM shift in the presence of BAD and DNA ([6]; D45A (Zn1–WGR interface mutation), relative to WT): substantial reduction in TM shift; TM ([6]; D45A with DNA (2.5 μM), TM without BAD 46.77): 46.61; TM ([6]; D45A, no DNA, TM without BAD 46.20): 46.68; concentration at which inhibition of DNA-dependent PARP-1 automodification activity starts [8]: 50 µM; TM ([9]; Figure 3a, no DNA, TM without BAD 45.74, in °C (unit assumed)): 50.13; TM change in the presence of BAD ([9]; did not require the presence of DNA): increase in TM |
| NC(=O)c1ccccc1 [benzamide] | 0.39 + /− 0.01 | 3.21 µM | 0.89 + /− 0.07 | also bound to benzamide similarly | 2.99 µM | 0.81 + /− 0.14 | also bound to benzamide similarly | 2.81 µM | 4.6 µM and 4.62 µM | n (stoichiometry) ([3]; CAT WT): 0.49 + /− 0.02; Kd [3, 10]: 3.79 µM; inhibition of DNA damage-dependent activity of full-length PARP-1 ([7]; 20 nM PARP-1, 40 nM DNA, 50 μM NAD+): inhibits to a similar extent as the entire BAD molecule |
